Test system: SEM cells
Test: cell viability relative to DMSO control; higher = less cytotoxic
Details: 48 h
Outline: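 Viability is expressed as a percentage of DMSO wells within each plate, and cell-free wells serve as background. Seeding densities in the 1536-well plates (5 μl) were 500 cells/well for NOMO1 or SEM leukemia cells and 1000 cells/well for P12-Ichikawa. Each line was adapted for at least four passages in each medium. Library compounds in DMSO were pin-dosed at 47 μM to 0.79 nM (11 points, threefold), and CellTiter-Glo One luminescence was read after 48 h at 37°C.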

CN(C)c1nc(N(C)C)nc(N(C)C)n1
cell viability [%]
Details | HPLM + 10% dialyzed FBS | RPMI 5 mM glucose + 10% FBS | RPMI 5 mM glucose + 10% dialyzed FBS
0.000781 µM | 92.3 | 107 | 102
0.00234 µM | 97.3 | 111 | 115
0.00702 µM | 110 | 102 | 102
0.0211 µM | 95.1 | 105 | 104
0.0632 µM | 103 | 107 | 108
0.19 µM | 104 | 101 | 110
0.569 µM | 106 | 102 | 109
1.71 µM | 92.5 | 100 | 94.3
5.12 µM | 97.6 | 90.1 | 100
15.4 µM | 92.2 | 104 | 98.6
46.1 µM | 84.9 | 93.4 | 93.1
